Laboratory results reported in patent US6440984B1, “Use of aryl-substituted pyrimidines as insecticidal and acaricidal agents” (BASF Aktiengesellschaft, priority 1998, dated 2002).

Assays:
Type in all cases: in vivo
[1] = test system: Spodoptera Eridania, 3rd Instar Larvae, Southern Armyworm (SAW); experiment: Southern armyworm (SAW) leaf-dip test, observations at 5 days; details: Southern Army Worm, rating scale; for pest or weed control at 1000 ppm: Spodoptera eridania, foliar, 120 h, read-out: SAW 2^ND-FOLIAR 1000 (ppm)
Method: (§1) Test solutions are prepared by dissolving the test compound in a 35% acetone in water mixture to give a concentration of 10,000 ppm. Subsequent dilutions are made with water as needed.
Spodoptera Eridania, 3rd Instar Larvae, Southern Armyworm (SAW)
A Sieva lima bean leaf expanded to 7-8 cm in length is dipped in the test solution with agitation for 3 seconds and allowed to dry in a hood. The leaf is then placed in a 100×10 mm petri dish containing a damp filter paper on the bottom and ten 3rd instar caterpillars. At 5 days, observations are made of mortality, reduced feeding, or any interference with normal molting.

[2] = test system: Aphis Fabae, Mixed Instar, Bean Aphid (BA); experiment: Bean aphid (BA) foliar spray test, mortality after 2 days; details: rating scale; for pest or weed control at 300 ppm: Aphis fabae, 48 h, read-out: BA AD-FOLIAR 300 (ppm)
Method: as §1
Aphis Fabae, Mixed Instar, Bean Aphid (BA)
Pots containing single nasturtium plants (Tropaeolum sp.) about 5 cm tall are infested with about 100-200 aphids one day before the test. Each pot is sprayed with the test solution for 2 revolutions of a 4 rpm turntable in a hood. The spray is directed to give complete coverage of the plants and aphids. The sprayed pots are set on their sides on white trays and held for 2 days, following which mortality estimates are made. Essentially the same method is used with respect to cotton aphid (CA).

[3] = test system: Tetranychus Urticae (OP-resistant strain), 2-spotted Spider Mite (TSM); experiment: Two-spotted spider mite (TSM) plant-dip test, mortality after 2 days; details: rating scale; for pest or weed control at 300 ppm: Tetranychus urticae, 48 h, read-out: TSM AD-FOLIAR 300 (ppm)
Method: as §1
Tetranychus Urticae (OP-resistant strain), 2-spotted Spider Mite (TSM)
Sieva lima bean plants with primary leaves expanded to 7-8 cm are selected and cut back to one plant per pot. A small piece is cut from an infested leaf taken from the main colony and placed on each leaf of the test plants. This is done about 2 hours before treatment to allow the mites to move over to the test plant to lay eggs. The size of the cut, infested leaf is varied to obtain about 100 mites per leaf. At the time of test treatment, the piece of leaf used to transfer the mites is removed and discarded. The newly-infested plants are dipped in the test solution for 3 seconds with agitation and set in the hood to dry. After 2 days, one leaf is removed and mortality counts are made.

FC(F)(F)c1cccc(Oc2nc(Cl)cc(-c3cccc(C(F)(F)F)c3)n2)c1 [Compound 110]
pest or weed control at 1000 ppm [1]: 76 to 100%

O=[N+]([O-])c1ccc(Oc2nccc(-c3cccc(OC(F)(F)F)c3)n2)cc1C(F)(F)F [Compound 40]
SAW 2^ND-FOLIAR 1000 (ppm) [1]: A (A 0-45% kill)

O=[N+]([O-])c1ccc(Oc2nccc(-c3ccc(C(F)(F)F)cc3)n2)cc1C(F)(F)F [Compound 33]
BA AD-FOLIAR 300 (ppm) [2]: B (B 45-75% kill)

FC(F)(F)Oc1cccc(-c2ccnc(Oc3cc(Cl)cc(Cl)c3)n2)c1 [Compound 41]
TSM AD-FOLIAR 300 (ppm) [3]: A (A 0-45% kill)

Fc1ccc(Oc2nccc(-c3ccc(Cl)cc3)n2)cc1C(F)(F)F [Compound 4]
TSM AD-FOLIAR 300 (ppm) [3]: A (A 0-45% kill)

FC(F)(F)Oc1ccc(-c2ccnc(Oc3ccc(Cl)c(C(F)(F)F)c3)n2)cc1 [Compound 46]
BA AD-FOLIAR 300 (ppm) [2]: B (B 45-75% kill)
SAW 2^ND-FOLIAR 1000 (ppm) [1]: B (B 45-75% kill)

COc1ccc(-c2ccnc(Oc3ccc(F)c(C(F)(F)F)c3)n2)cc1 [Compound 153]
pest or weed control at 300 ppm [2]: 45 to 75%

Fc1cc(-c2ccnc(Oc3ccc(F)c(C(F)(F)F)c3)n2)cc(C(F)(F)F)c1 [Compound 53]
BA AD-FOLIAR 300 (ppm) [2]: C (C 76-100% kill)
SAW 2^ND-FOLIAR 1000 (ppm) [1]: A (A 0-45% kill)

Fc1cc(-c2ccnc(Oc3ccccc3)n2)cc(C(F)(F)F)c1 [Compound 54]
BA AD-FOLIAR 300 (ppm) [2]: C (C 76-100% kill)
SAW 2^ND-FOLIAR 1000 (ppm) [1]: C (C 76-100% kill)
TSM AD-FOLIAR 300 (ppm) [3]: C (C 76-100% kill)

O=[N+]([O-])c1cccc(Oc2nccc(-c3ccc(Cl)cc3)n2)c1 [Compound 140]
pest or weed control at 300 ppm [2]: 0 to 45%
pest or weed control at 300 ppm [3]: 45 to 75%

FC(F)(F)c1cccc(-c2ccnc(Oc3ccc(Cl)c(Cl)c3)n2)c1 [Compound 20]
BA AD-FOLIAR 300 (ppm) [2]: B (B 45-75% kill)
SAW 2^ND-FOLIAR 1000 (ppm) [1]: A (A 0-45% kill)

CCc1ccc(-c2ccnc(Oc3ccc(Cl)c(C(F)(F)F)c3)n2)cc1 [Compound 17]
BA AD-FOLIAR 300 (ppm) [2]: C (C 76-100% kill)

CCc1cnc(Oc2cccc(C(F)(F)F)c2)nc1-c1ccc(Cl)c(F)c1 [Compound 82]
pest or weed control at 1000 ppm [1]: 76 to 100%

FC(F)(F)c1cccc(-c2ccnc(Oc3ccc(Cl)c(Cl)c3)n2)c1 [Compound 18]
BA AD-FOLIAR 300 (ppm) [2]: A (A 0-45% kill)
SAW 2^ND-FOLIAR 1000 (ppm) [1]: A (A 0-45% kill)
TSM AD-FOLIAR 300 (ppm) [3]: A (A 0-45% kill)

Fc1cccc(Oc2nccc(-c3ccc(Cl)cc3)n2)c1 [Compound 137]
pest or weed control at 300 ppm [2]: 76 to 100%

Fc1ccc(Oc2nccc(-c3ccc(Cl)cc3)n2)cc1Cl [Compound 150]
pest or weed control at 300 ppm [2]: 45 to 75%
pest or weed control at 300 ppm [3]: 76 to 100%

Fc1ccc(Oc2nccc(-c3ccccc3)n2)cc1C(F)(F)F [Compound 130]
pest or weed control at 300 ppm [2]: 0 to 45%

COc1cccc(Oc2nccc(-c3ccc(Cl)cc3)n2)c1 [Compound 143]
pest or weed control at 300 ppm [2]: 76 to 100%

O=[N+]([O-])c1ccc(Oc2nccc(-c3ccc(Cl)cc3)n2)cc1C(F)(F)F [Compound 3]
SAW 2^ND-FOLIAR 1000 (ppm) [1]: B (B 45-75% kill)

Fc1cc(F)cc(-c2ccnc(Oc3cccc(C(F)(F)F)c3)n2)c1 [Compound 61]
BA AD-FOLIAR 300 (ppm) [2]: C (C 76-100% kill)

CN(C)c1cc(-c2cccc(C(F)(F)F)c2)nc(Oc2cccc(C(F)(F)F)c2)n1 [Compound 111]
pest or weed control at 300 ppm [2]: 76 to 100%

FC(F)(F)c1cccc(Oc2nccc(-c3cccc(C(F)(F)F)c3)n2)c1 [Compound 109]
pest or weed control at 300 ppm [2]: 45 to 75%
pest or weed control at 1000 ppm [1]: 0 to 45%

FC(F)(F)Oc1ccc(-c2ccnc(Oc3cccc(C(F)(F)F)c3)n2)cc1 [Compound 48]
BA AD-FOLIAR 300 (ppm) [2]: B (B 45-75% kill)
SAW 2^ND-FOLIAR 1000 (ppm) [1]: A (A 0-45% kill)
TSM AD-FOLIAR 300 (ppm) [3]: B (B 45-75% kill)

Fc1ccc(Oc2nccc(-c3ccc(F)c(C(F)(F)F)c3)n2)cc1C(F)(F)F [Compound 70]
TSM AD-FOLIAR 300 (ppm) [3]: B (B 45-75% kill)

Fc1ccc(Oc2nccc(-c3ccc(Cl)c(Cl)c3)n2)cc1C(F)(F)F [Compound 155]
pest or weed control at 300 ppm [2]: 76 to 100%
pest or weed control at 1000 ppm [1]: 0 to 45%

Cc1ccc(-c2ccnc(Oc3cccc(C(F)(F)F)c3)n2)cc1 [Compound 147]
pest or weed control at 300 ppm [2]: 76 to 100%
pest or weed control at 300 ppm [3]: 76 to 100%

Fc1cccc(Oc2nccc(-c3ccc(Cl)cc3)n2)c1 [Compound 142]
pest or weed control at 300 ppm [3]: 76 to 100%

FC(F)(F)c1cccc(Oc2nccc(-c3ccc(Cl)cc3)n2)c1 [Compound 116]
pest or weed control at 1000 ppm [1]: 0 to 45%
pest or weed control at 300 ppm [3]: 45 to 75%

Fc1ccc(Oc2nccc(-c3ccc(Br)cc3)n2)cc1C(F)(F)F [Compound 162]
pest or weed control at 1000 ppm [1]: 0 to 45%

CCc1ccc(-c2ccnc(Oc3ccc(F)c(Cl)c3)n2)cc1 [Compound 13]
BA AD-FOLIAR 300 (ppm) [2]: C (C 76-100% kill)
SAW 2^ND-FOLIAR 1000 (ppm) [1]: C (C 76-100% kill)

Fc1cc(-c2ccnc(Oc3ccc(Cl)c(Cl)c3)n2)cc(C(F)(F)F)c1 [Compound 58]
BA AD-FOLIAR 300 (ppm) [2]: C (C 76-100% kill)

Fc1ccc(Oc2nccc(-c3ccc(C(F)(F)F)cc3)n2)cc1Cl [Compound 31]
BA AD-FOLIAR 300 (ppm) [2]: B (B 45-75% kill)

FC(F)(F)c1cccc(Oc2nccc(-c3ccccc3)n2)c1 [Compound 128]
pest or weed control at 300 ppm [2]: 45 to 75%
pest or weed control at 300 ppm [3]: 76 to 100%

CSc1cc(-c2ccc(Cl)cc2)nc(Oc2cccc(Cl)c2)n1 [Compound 119]
pest or weed control at 1000 ppm [1]: 45 to 75%

O=[N+]([O-])c1ccc(Oc2nccc(-c3ccc(OC(F)(F)F)cc3)n2)cc1C(F)(F)F [Compound 49]
BA AD-FOLIAR 300 (ppm) [2]: B (B 45-75% kill)
TSM AD-FOLIAR 300 (ppm) [3]: B (B 45-75% kill)

Fc1ccc(-c2ccnc(Oc3cccc(C(F)(F)F)c3)n2)cc1 [Compound 136]
pest or weed control at 1000 ppm [1]: 0 to 45%
pest or weed control at 300 ppm [3]: 0 to 45%

Fc1ccc(Oc2nccc(-c3ccc(Cl)cc3)n2)cc1C(F)(F)F [Compound 115]
pest or weed control at 1000 ppm [1]: 0 to 45%
pest or weed control at 300 ppm [3]: 45 to 75%

FC(F)(F)Oc1ccc(-c2ccnc(Oc3cc(Cl)cc(Cl)c3)n2)cc1 [Compound 44]
SAW 2^ND-FOLIAR 1000 (ppm) [1]: A (A 0-45% kill)

CSc1cc(-c2cccc(C(F)(F)F)c2)nc(Oc2cccc(C(F)(F)F)c2)n1 [Compound 108]
pest or weed control at 300 ppm [2]: 45 to 75%

CCc1ccc(-c2ccnc(Oc3cccc(C(F)(F)F)c3)n2)cc1 [Compound 15]
BA AD-FOLIAR 300 (ppm) [2]: C (C 76-100% kill)
TSM AD-FOLIAR 300 (ppm) [3]: C (C 76-100% kill)

FC(F)(F)c1cccc(Oc2nccc(-c3ccc(Br)cc3)n2)c1 [Compound 161]
pest or weed control at 300 ppm [2]: 76 to 100%
pest or weed control at 1000 ppm [1]: 0 to 45%

CCCc1cnc(Oc2cccc(C(F)(F)F)c2)nc1-c1cccc(C(F)(F)F)c1 [Compound 159]
pest or weed control at 1000 ppm [1]: 0 to 45%
pest or weed control at 300 ppm [3]: 45 to 75%

O=[N+]([O-])c1ccc(Oc2nccc(-c3ccccc3)n2)cc1C(F)(F)F [Compound 8]
SAW 2^ND-FOLIAR 1000 (ppm) [1]: A (A 0-45% kill)

FC(F)(F)c1cc(Oc2nccc(-c3ccc(Cl)cc3)n2)ccc1Cl [Compound 1]
SAW 2^ND-FOLIAR 1000 (ppm) [1]: A (A 0-45% kill)

O=[N+]([O-])c1ccc(-c2ccnc(Oc3cccc(C(F)(F)F)c3)n2)cc1 [Compound 9]
BA AD-FOLIAR 300 (ppm) [2]: B (B 45-75% kill)

Fc1cc(F)cc(-c2ccnc(Oc3ccc(F)c(C(F)(F)F)c3)n2)c1 [Compound 62]
BA AD-FOLIAR 300 (ppm) [2]: B (B 45-75% kill)
SAW 2^ND-FOLIAR 1000 (ppm) [1]: C (C 76-100% kill)

Fc1ccc(Oc2nccc(-c3ccccc3)n2)cc1C(F)(F)F [Compound 6]
SAW 2^ND-FOLIAR 1000 (ppm) [1]: A (A 0-45% kill)

FC(F)(F)c1ccc(-c2ccnc(Oc3ccc(Cl)c(Cl)c3)n2)cc1 [Compound 28]
BA AD-FOLIAR 300 (ppm) [2]: A (A 0-45% kill)

FC(F)(F)c1cccc(Oc2nccc(-c3ccc(Cl)cc3)n2)c1 [Compound 2]
TSM AD-FOLIAR 300 (ppm) [3]: C (C 76-100% kill)

Fc1ccc(Oc2nccc(-c3cccc(C(F)(F)F)c3)n2)cc1C(F)(F)F [Compound 112]
pest or weed control at 1000 ppm [1]: 0 to 45%

N#Cc1cccc(Oc2nccc(-c3ccc(Cl)cc3)n2)c1 [Compound 141]
pest or weed control at 300 ppm [2]: 45 to 75%

Fc1cc(-c2ccnc(Oc3cccc(C(F)(F)F)c3)n2)cc(C(F)(F)F)c1 [Compound 52]
SAW 2^ND-FOLIAR 1000 (ppm) [1]: A (A 0-45% kill)

FC(F)(F)c1cccc(Oc2nccc(-c3ccc(Cl)c(Cl)c3)n2)c1 [Compound 154]
pest or weed control at 300 ppm [2]: 45 to 75%

CC(C)(C)c1ccc(-c2ccnc(Oc3ccc([N+](=O)[O-])c(C(F)(F)F)c3)n2)cc1 [Compound 26]
BA AD-FOLIAR 300 (ppm) [2]: B (B 45-75% kill)

CC(C)(C)c1ccc(-c2ccnc(Oc3ccc(Cl)c(C(F)(F)F)c3)n2)cc1 [Compound 25]
BA AD-FOLIAR 300 (ppm) [2]: A (A 0-45% kill)

Clc1ccc(-c2ccnc(Oc3ccc(Cl)c(Cl)c3)n2)cc1 [Compound 151]
pest or weed control at 300 ppm [2]: 45 to 75%

FC(F)(F)c1cc(Oc2nccc(-c3ccc(Cl)cc3)n2)ccc1Cl [Compound 122]
pest or weed control at 1000 ppm [1]: 45 to 75%

FC(F)(F)Oc1ccc(-c2ccnc(Oc3cc(C(F)(F)F)cc(C(F)(F)F)c3)n2)cc1 [Compound 45]
BA AD-FOLIAR 300 (ppm) [2]: C (C 76-100% kill)
